From paper PMC6240685, “Strong Inhibitory Effect, Low Cytotoxicity and High Plasma Stability of Steroidal Inhibitors of N-Methyl-D-Aspartate Receptors With C-3 Amide Structural Motif” (Frontiers in Pharmacology, 2018)

System: AMPARs
Assay: Inhibition of native AMPAR responses in cultured hippocampal neurons
Format: cell-based, rat
Details: cyclothiazide 10 μM
Experimental: FIGURE 8 The effect of compound 6 on peak and steady-state responses of native NMDARs, AMPARs, and GABARs. (A) Examples of traces obtained from cultured hippocampal neurons. […] Error bars represent SD from five independent measurements. Asterisks mark significance at the level of P < 0.05 (Paired t-test).
FIGURE 9 The effect of compound 6 on native NMDARs, AMPARs, and GABARs. (A) Example of traces obtained from cultured hippocampal neurons. Compound 6 (10 or 30 μM) was co-applied with NMDA (100 μM), AMPA (100 μM), and GABA (5 μM) (duration of agonist and steroid application is indicated by filled and open bars, respectively). […]
Electrophysiological experiments were performed on HEK293 cells transfected with plasmids encoding rat GluN1-1a/GluN2A-D and GFP genes as described previously, ([Petrovic et al., 2005]; [Cais et al., 2008]; [Korinek et al., 2010]) or on primary hippocampal neurons prepared from P0–P1 rats, plated on collagen/poly-D-lysine-coated glass coverslips at a density of ∼50,000 cells/cm^2, and grown in Neurobasal A medium with B27 Supplement (Gibco). […] Agonist-induced responses were low-pass filtered at 2 kHz, digitally sampled at 5 kHz, and analyzed with pClamp software version 10.5 (Molecular Devices). […] Action potentials were recorded in the current-clamp mode from primary hippocampal mass-culture neurons at 14–15 days in vitro. […]

With C[C@@]12CCC[C@H]1[C@@H]1CC[C@@H]3C[C@H](NC(=O)[C@@H](N)CC(=O)O)CC[C@]3(C)[C@H]1CC2 [Compound 6, (S)-3-amino-4-(((3R,5R,8S,9S,10S,13S,14S)-10,13-dimethylhexadecahydro-1H-cyclopenta[a]phenanthren-3-yl)amino)-4-oxobutanoic acid] the “effect on amplitude of AMPA-induced responses” value (AMPA 100 μM) was “only little affected” and the potency estimated from few doses (estimated from single dose (30 μM), Hill coefficient fixed at 1.2, 100 μM AMPA, read-out: IC50 at AMPAR responses (estimate)) was 276 ± 179 µM.
